Each block holds one compound with its values, some of them ahead of it.
Tests used:
[1] = Stability constant (binding ability) towards manganese; conditions: relative to the EDTA chelate
[2] = in vivo
[3] = Relaxivities (T1, T2) of protons in plasma exposed to the complexes; format: physicochemical
Protocol: (§1) c) Relaxitivities of protons present in water and plasma exposed to the complexes of (a) and (b) (at 10 mHz) (37° C.) in milliseconds:
(§2) c) Relaxivities of protons present in water and plasma exposed to (a) and (b) at 10 mHz (37 C) in milliseconds: […]

[4] = in vivo; cited from earlier work
[5] = Relaxivities (T1, T2) of protons in water exposed to the complexes; format: physicochemical; conditions: Table 5
Protocol: as §1, §2

[6] = in vivo; cited from earlier work; remark: listed apart in the source
[7] = Table 5, 1.56 × 10^-3 moles/liter
[8] = Table 5, 3.13 × 10^-3 moles/liter
[9] = Table 5, 6.25 × 10^-3 moles/liter

Structure (SMILES): O=C(O)CN(CC(=O)O)[C@@H]1CCCC[C@H]1N(CC(=O)O)CC(=O)O (relative stereo) [DCTA, trans-N,N,N',N'-tetra-carboxymethyl-1,2-diaminocyclohexane]
Stability constant (binding ability) towards manganese [1]: several thousand times better

T1 plasma ([3]; 9.77 × 10^-5 moles/liter): 877 ms | T1 plasma [3, 7]: 134 ms | T2 plasma [3, 7]: 116 ms | T1 plasma ([3]; Table 5, 1.95 × 10^-4 moles/liter): 636 ms | T1 plasma [3, 8]: 69 ms | T2 plasma [3, 8]: 61 ms | T1 plasma ([3]; Table 5, 3.91 × 10^-4 moles/liter): 405 ms | T1 plasma [3, 9]: 39 ms | T2 plasma [3, 9]: 31 ms | T1 plasma ([3]; Table 5, 7.81 × 10^-4 moles/liter): 240 ms | T1 water ([5]; 1.56 × 10^-3 moles/liter): 163 ms | T2 water ([5]; 1.56 × 10^-3 moles/liter): 155 ms | T1 water ([5]; 1.95 × 10^-4 moles/liter): 1015 ms | T1 water ([5]; 3.13 × 10^-3 moles/liter): 83 ms | T2 water ([5]; 3.13 × 10^-3 moles/liter): 76 ms | T1 water ([5]; 3.91 × 10^-4 moles/liter): 582 ms | T1 water ([5]; 6.25 × 10^-3 moles/liter): 40 ms | T2 water ([5]; 6.25 × 10^-3 moles/liter): 35 ms | T1 water ([5]; 7.81 × 10^-4 moles/liter): 309 ms
Structure (SMILES): O=C([O-])CN(CCN(CC(=O)[O-])CC(=O)O)CCN(CC(=O)[O-])CC(=O)O.[Gd+3] [Gd DTPA, gadolinium chelate of diethylene-triamine-pentaacetic acid]
Organ distribution [2]: does not substantially interact with the hepatobiliary system | Uptake by solid organs [4]: virtually no uptake by any solid organ | Post T1 fat [6]: 185 milliseconds | Post T1 kidneys [6]: 205 milliseconds | Post T1 liver [6]: 195 milliseconds | Post T1 muscle [6]: 335 milliseconds | Post T1 spleen [6]: 285 milliseconds
